Results as given in US7371728B2, “Prostate-specific antigen probes for optical imaging” (Kaohsiung Medical University, priority 2005, dated 2008).
Entries after “also recorded” stand apart in the source; their conditions may differ. Square brackets hold non-standard residues; d marks the D form. Ends that are not written are not given here. * marks the point of attachment. FITC = O=C1OC2(c3ccc(O)cc3Oc3cc(O)ccc32)c2ccc(NC(=S)*)cc21; Hyp = O=C(O)[C@@H]1C[C@@H](O)CN1; Chg = N[C@H](C(=O)O)C1CCCCC1

What was measured:
[1] = molecular target: T1, prostate-specific antigen (Homo sapiens, UniProt P07288); assay: HPLC study of peptide specificity for prostate-specific antigen; assay type: biochemical; conditions: in the presence of prostate-specific antigen enzyme; fluorescence detection 480/525 nm
T1 sequence (P07288 25-261): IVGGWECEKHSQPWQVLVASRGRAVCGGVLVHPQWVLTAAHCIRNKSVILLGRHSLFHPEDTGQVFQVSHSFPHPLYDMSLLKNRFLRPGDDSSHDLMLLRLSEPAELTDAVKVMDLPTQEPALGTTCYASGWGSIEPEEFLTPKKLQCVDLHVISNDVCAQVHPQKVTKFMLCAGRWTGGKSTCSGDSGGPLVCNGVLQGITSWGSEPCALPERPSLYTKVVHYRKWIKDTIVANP
Description: The Study of Peptide Specificity for Prostate-Specific Antigen: • The high performance liquid chromatography is used for application in study of peptide separation, peptide purity analysis and specific enzyme-cutting specificity for a peptide substrate. […] The goal of the study of the present invention is to develop prostate peptide substrates and enzymes by in-vitro experiments.
The chromatographic diagrams of specificity analysis of the prostate peptide substrates and prostate-specific antigen are shown in FIGS. 3 and 4. The conditions of the HPLC are as follows: a reverse C18 chromatography column, mobile phase is methyl alcohol: 1% triethylamine=60:40(v/v), flow rate is 0.5 ml/min. […] There are two peaks in the spectrums if HPLC runs in the presence of the prostate-specific antigen with the retention times being 2.7 and 3.2 min as shown in FIG. 3.

[2] = molecular target: T1, prostate-specific antigen; assay: Quenching and non-quenching study: fluorescence intensity over time after reaction with prostate-specific antigen; assay type: biochemical; conditions: 35 minutes
Description: FIG. 5. is a fluorescence absorption verse time diagram showing fluorescence intensity of a control peptide probe (×) for a prostate peptide substrate probe Cy-prostate-PGC (▪), control peptide probe (Δ) and a prostate peptide probe in the presence of a prostate-specific antigen (♦) according to the present invention;
At different time, a prostate peptide substrate and prostate control peptide are reacted with an enzyme of prostate-specific antigen to record its fluorescence spectrum and the results are shown in FIG. 5. […] When the reaction time for the reaction between prostate peptide substrate and the prostate-specific antigen reaches 35 minutes and the signal intensity becomes 5 times as that of the original fluorescence intensity.

fluorescence signal intensity relative to the original fluorescence intensity [2]: 5 times
Substance: G[Hyp]AS[Chg]QSLMK(FITC)C-NH2 [prostate peptide substrate]
cutting of the peptide by prostate-specific antigen (HPLC) [1]: can cut Gln-Ser residue; also recorded: one major cut
